Measurements published in ChEMBL document CHEMBL5291721, “A preclinical secondary pharmacology resource illuminates target-adverse drug reaction associations of marketed drugs” (Nat Commun, 2023).

Legend:
[1] = target: Mu-type opioid receptor (Homo sapiens, UniProt P35372)
[2] = target: Voltage-gated inwardly rectifying potassium channel KCNH2 (Homo sapiens, UniProt Q12809); format: functional; settings: read-out: AC50
[3] = target: T1, Alpha-1A adrenergic receptor (Homo sapiens, UniProt P35348); format: functional, cell-based
T1 sequence (P35348 whole entry): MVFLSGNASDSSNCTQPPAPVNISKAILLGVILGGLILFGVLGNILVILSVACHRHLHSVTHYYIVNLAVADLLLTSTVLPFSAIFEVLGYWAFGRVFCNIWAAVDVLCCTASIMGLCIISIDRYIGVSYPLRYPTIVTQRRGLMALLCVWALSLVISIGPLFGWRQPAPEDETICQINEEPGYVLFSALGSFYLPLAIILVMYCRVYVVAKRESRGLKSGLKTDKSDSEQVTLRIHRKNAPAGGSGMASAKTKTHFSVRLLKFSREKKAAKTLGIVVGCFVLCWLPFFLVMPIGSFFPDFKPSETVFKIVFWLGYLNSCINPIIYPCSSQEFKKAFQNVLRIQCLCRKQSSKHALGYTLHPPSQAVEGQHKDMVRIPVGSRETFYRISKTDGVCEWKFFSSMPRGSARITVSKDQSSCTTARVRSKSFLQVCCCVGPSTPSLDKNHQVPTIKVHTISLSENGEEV

[4] = target: 5-hydroxytryptamine receptor 2B (Homo sapiens, UniProt P41595); format: functional, cell-based
[5] = target: T2, Muscarinic acetylcholine receptor M1 (Homo sapiens, UniProt P11229); format: functional, cell-based
T2 sequence (P11229 whole entry): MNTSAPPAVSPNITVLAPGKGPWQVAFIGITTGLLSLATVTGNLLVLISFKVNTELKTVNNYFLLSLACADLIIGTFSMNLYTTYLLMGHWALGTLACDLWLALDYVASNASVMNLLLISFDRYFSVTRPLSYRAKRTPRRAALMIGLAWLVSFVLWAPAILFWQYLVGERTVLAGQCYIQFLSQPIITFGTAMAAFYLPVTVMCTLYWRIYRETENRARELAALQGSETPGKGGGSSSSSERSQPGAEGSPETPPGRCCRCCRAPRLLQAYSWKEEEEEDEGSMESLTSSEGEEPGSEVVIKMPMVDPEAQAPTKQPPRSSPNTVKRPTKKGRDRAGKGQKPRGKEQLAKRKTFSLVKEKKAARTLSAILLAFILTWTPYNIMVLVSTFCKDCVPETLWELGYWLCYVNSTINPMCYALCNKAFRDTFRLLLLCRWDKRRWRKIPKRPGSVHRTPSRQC

[6] = target: Acetylcholinesterase (Homo sapiens, UniProt P22303); format: functional
[7] = target: T3, Thromboxane A2 receptor (Homo sapiens, UniProt P21731); format: functional, cell-based
T3 sequence (P21731 whole entry): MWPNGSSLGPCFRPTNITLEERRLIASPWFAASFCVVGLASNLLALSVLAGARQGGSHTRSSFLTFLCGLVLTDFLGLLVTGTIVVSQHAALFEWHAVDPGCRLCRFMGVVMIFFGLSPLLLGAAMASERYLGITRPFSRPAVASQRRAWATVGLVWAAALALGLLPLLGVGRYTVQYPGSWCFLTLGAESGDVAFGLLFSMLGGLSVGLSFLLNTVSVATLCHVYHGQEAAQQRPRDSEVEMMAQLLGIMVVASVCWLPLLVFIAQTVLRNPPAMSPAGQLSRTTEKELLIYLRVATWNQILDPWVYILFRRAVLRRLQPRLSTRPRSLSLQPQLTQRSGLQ

[8] = target: D(1A) dopamine receptor (Homo sapiens, UniProt P21728)
[9] = target: D(3) dopamine receptor (Homo sapiens, UniProt P35462)
[10] = target: T4, Muscarinic acetylcholine receptor M2 (Homo sapiens, UniProt P08172)
T4 sequence (P08172 whole entry): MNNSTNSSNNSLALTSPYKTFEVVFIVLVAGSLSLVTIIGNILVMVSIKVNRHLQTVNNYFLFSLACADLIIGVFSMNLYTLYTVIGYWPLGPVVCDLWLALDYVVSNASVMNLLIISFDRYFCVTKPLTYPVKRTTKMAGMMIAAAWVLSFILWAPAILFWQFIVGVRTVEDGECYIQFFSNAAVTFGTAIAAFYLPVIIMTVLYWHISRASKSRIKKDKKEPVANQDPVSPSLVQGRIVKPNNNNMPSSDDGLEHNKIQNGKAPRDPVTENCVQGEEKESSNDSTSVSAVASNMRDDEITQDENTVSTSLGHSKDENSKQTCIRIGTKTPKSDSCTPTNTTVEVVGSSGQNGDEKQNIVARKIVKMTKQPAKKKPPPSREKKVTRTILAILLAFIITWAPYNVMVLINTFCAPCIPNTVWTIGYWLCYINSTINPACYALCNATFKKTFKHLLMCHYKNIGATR

[11] = target: Vascular endothelial growth factor receptor 2 (Homo sapiens, UniProt P35968); format: functional
Further: assay procedure not described here.

Sequence of D(1A) dopamine receptor (P21728 whole entry): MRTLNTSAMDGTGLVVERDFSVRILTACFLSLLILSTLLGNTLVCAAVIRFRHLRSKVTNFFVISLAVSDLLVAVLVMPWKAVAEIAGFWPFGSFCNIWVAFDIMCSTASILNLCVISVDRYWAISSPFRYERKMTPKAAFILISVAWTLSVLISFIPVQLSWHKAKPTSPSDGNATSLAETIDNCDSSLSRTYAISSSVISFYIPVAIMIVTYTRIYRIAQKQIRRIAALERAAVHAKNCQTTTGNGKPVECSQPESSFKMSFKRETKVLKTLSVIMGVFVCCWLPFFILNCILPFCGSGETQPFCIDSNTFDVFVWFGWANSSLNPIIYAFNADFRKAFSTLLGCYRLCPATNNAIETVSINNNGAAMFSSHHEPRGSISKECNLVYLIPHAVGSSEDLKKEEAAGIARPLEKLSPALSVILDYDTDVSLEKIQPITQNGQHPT
Sequence of 5-hydroxytryptamine receptor 2B (P41595 whole entry): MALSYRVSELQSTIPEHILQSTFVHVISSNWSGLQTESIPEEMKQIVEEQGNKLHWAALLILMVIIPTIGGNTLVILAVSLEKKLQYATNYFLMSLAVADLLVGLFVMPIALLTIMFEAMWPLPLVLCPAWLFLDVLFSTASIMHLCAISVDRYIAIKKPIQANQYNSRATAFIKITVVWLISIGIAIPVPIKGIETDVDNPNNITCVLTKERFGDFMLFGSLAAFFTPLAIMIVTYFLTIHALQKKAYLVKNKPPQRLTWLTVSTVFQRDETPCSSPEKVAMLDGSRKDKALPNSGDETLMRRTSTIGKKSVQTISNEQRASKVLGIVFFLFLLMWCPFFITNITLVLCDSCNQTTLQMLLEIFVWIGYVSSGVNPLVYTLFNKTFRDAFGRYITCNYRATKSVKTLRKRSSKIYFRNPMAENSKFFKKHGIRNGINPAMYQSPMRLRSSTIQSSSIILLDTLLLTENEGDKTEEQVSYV
Sequence of Vascular endothelial growth factor receptor 2 (P35968 whole entry): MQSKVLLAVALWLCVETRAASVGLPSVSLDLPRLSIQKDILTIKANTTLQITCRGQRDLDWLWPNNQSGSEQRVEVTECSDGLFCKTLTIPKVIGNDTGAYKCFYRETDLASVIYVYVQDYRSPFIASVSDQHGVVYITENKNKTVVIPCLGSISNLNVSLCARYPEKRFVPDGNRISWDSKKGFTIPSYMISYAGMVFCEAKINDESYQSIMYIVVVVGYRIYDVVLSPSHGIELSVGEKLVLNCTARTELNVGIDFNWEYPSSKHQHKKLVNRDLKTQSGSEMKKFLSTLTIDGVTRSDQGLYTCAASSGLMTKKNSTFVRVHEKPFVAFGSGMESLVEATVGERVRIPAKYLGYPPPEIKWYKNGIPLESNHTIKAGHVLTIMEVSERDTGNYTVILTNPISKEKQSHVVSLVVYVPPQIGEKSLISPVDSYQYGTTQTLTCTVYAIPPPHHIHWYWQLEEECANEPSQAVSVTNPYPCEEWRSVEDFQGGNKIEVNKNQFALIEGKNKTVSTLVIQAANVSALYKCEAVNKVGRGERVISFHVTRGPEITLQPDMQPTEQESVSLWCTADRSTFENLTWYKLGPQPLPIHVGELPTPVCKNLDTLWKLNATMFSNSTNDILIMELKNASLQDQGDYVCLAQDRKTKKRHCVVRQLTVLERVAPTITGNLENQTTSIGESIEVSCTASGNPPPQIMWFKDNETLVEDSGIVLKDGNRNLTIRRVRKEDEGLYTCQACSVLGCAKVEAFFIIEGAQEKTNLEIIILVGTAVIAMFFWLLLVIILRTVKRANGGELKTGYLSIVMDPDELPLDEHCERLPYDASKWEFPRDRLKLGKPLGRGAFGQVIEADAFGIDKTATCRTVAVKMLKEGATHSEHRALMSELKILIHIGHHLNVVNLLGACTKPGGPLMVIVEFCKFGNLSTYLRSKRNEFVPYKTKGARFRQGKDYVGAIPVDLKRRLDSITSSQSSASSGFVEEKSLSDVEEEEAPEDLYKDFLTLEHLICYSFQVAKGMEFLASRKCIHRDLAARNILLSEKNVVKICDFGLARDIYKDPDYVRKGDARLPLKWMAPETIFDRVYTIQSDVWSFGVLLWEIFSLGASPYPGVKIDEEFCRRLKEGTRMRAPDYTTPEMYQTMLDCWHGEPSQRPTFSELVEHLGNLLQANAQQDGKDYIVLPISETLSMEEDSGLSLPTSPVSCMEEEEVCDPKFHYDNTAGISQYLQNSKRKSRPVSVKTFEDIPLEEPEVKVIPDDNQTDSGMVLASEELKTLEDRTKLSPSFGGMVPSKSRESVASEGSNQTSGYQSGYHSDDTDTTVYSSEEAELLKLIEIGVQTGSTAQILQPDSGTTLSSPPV
Sequence of Acetylcholinesterase (P22303 whole entry): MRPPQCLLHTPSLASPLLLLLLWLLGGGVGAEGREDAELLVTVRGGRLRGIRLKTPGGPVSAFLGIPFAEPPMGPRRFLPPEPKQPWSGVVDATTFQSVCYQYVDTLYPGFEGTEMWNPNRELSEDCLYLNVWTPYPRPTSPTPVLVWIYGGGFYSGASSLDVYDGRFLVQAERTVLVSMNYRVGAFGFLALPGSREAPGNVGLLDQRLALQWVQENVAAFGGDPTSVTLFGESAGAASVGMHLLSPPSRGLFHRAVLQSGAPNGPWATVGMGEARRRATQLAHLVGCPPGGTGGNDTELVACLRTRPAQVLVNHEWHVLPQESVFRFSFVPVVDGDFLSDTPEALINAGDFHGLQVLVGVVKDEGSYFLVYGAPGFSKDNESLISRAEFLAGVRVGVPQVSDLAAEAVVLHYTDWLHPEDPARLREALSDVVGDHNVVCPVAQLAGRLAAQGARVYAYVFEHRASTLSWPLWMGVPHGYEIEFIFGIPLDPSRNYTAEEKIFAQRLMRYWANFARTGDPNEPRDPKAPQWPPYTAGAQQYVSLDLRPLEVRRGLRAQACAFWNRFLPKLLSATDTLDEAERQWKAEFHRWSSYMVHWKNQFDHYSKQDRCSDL
Sequence of Mu-type opioid receptor (P35372 whole entry): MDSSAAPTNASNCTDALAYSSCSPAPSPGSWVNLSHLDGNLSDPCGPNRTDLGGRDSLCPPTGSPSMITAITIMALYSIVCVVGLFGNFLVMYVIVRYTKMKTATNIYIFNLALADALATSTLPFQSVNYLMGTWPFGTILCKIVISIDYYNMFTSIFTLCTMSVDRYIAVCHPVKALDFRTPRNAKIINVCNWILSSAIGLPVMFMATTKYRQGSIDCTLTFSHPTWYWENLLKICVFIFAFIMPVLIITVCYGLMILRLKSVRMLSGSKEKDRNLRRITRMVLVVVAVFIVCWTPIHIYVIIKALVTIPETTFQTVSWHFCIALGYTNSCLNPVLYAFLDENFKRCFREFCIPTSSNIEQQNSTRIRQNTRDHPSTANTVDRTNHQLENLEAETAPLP
Sequence of Voltage-gated inwardly rectifying potassium channel KCNH2 (Q12809 whole entry): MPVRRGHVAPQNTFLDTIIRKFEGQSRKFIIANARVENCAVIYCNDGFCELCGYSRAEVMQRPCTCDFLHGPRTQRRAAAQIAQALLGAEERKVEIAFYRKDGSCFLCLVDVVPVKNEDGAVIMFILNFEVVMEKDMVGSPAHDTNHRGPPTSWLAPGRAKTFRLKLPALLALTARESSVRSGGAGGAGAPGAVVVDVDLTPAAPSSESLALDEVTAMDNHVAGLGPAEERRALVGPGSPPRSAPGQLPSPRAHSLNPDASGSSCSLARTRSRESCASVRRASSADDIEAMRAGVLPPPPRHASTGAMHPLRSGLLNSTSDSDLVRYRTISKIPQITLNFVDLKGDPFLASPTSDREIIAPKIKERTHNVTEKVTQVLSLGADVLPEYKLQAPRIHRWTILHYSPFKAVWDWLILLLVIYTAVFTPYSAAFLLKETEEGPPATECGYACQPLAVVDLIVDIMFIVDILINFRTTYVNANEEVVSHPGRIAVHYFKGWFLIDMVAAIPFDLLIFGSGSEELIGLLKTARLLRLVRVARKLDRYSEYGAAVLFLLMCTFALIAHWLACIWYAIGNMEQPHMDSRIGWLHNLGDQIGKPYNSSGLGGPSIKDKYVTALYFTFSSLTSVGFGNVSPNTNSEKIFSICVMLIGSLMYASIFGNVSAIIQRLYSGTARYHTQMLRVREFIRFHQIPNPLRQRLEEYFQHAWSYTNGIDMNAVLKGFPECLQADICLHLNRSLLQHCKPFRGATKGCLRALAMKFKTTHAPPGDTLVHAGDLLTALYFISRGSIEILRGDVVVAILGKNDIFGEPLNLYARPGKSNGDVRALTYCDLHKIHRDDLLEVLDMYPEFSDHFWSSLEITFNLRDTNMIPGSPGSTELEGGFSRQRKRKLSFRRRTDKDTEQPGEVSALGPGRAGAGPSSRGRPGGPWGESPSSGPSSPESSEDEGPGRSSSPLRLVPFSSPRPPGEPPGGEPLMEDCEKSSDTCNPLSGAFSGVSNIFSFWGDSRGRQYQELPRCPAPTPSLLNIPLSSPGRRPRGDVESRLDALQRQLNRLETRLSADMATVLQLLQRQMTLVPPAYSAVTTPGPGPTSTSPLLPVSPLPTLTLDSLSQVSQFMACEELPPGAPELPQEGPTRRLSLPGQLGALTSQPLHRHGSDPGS
Sequence of D(3) dopamine receptor (P35462 whole entry): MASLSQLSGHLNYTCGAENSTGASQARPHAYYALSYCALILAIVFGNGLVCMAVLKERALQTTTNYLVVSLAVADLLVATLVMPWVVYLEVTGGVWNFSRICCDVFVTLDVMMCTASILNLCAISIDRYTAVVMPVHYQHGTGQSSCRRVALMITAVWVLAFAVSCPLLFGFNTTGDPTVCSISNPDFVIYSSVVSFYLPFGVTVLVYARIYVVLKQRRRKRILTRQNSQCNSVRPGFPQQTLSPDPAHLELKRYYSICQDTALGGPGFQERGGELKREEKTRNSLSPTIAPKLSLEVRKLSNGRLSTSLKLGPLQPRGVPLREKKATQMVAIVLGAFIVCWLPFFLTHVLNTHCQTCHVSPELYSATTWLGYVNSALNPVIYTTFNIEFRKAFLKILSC

SMILES | AC50 [1] | AC50 [2] | AC50 [3] | AC50 [4] | AC50 [5] | AC50 [6] | AC50 [7] | AC50 [8] | AC50 [9] | AC50 [10] | AC50 [11]
CCCCCNC(=N)N/N=C/c1c[nH]c2ccc(OC)cc12 [TEGASEROD] | 2.32 µM | 4.8 µM | 1.16 µM | > 30 µM | > 3 µM | > 30 µM | > 3 µM | 0.73 µM | 5.62 µM | 6.59 µM | 
Nc1ccc2cc3ccc(N)cc3nc2c1 [PROFLAVINE] | 3.64 µM | 5 µM |  | > 30 µM | > 0.3 µM | 1.84 µM | > 0.3 µM | 10.6 µM | 22.9 µM | 2.61 µM | 25.8 µM
CN(C)CC/C=C1\c2ccccc2CSc2ccccc21 [DOTHIEPIN] |  | 1.5 µM |  |  |  |  |  |  |  |  | 
CCOC(=O)[C@H](CCc1ccccc1)N[C@@H](C)C(=O)N1CC2(C[C@H]1C(=O)O)SCCS2 | > 30 µM | > 30 µM | > 30 µM | > 30 µM | > 30 µM | > 30 µM | > 30 µM | > 30 µM | > 30 µM | > 30 µM | > 10 µM
Cc1cc(OP(=O)(O)O)c2ccccc2c1OP(=O)(O)O [MENADIOL SODIUM DIPHOSPHATE] | > 30 µM |  | > 30 µM | > 30 µM | > 30 µM | > 30 µM | > 30 µM | > 30 µM | > 30 µM | > 30 µM | > 30 µM
CCN1CCCC1CNC(=O)c1cc(S(N)(=O)=O)ccc1OC (stereo not given) [SULPIRIDE] | > 30 µM | > 30 µM | > 30 µM | > 30 µM |  | > 30 µM | > 30 µM | 16.5 µM |  | > 30 µM | > 30 µM
COc1ccccc1N1CCN(CC(O)COc2cccc3ccccc23)CC1 (stereo not given) [NAFTOPIDIL] | 0.9 µM | 0.87 µM |  | > 30 µM |  | 26.1 µM | > 30 µM | 2.08 µM | 0.04 µM | > 30 µM | 
Nc1ccncc1N [AMIFAMPRIDINE] | > 30 µM | > 30 µM | > 30 µM | > 30 µM | > 30 µM | > 30 µM | > 30 µM | > 30 µM | > 30 µM | > 30 µM | > 30 µM
OC[C@@H](O)[C@H](O)[C@@H](O)CO [XYLITOL] | > 30 µM | > 30 µM | > 30 µM | > 30 µM | > 30 µM | > 30 µM | > 30 µM | > 30 µM | > 30 µM | > 30 µM | > 30 µM
O=c1[nH]c(=O)n(C2CCCO2)cc1F (stereo not given) [TEGAFUR] | > 30 µM | > 30 µM | > 30 µM | > 30 µM |  | > 30 µM | > 30 µM | > 30 µM |  | > 30 µM | > 30 µM
COc1cc2c3cc1Oc1cc(ccc1O)C[C@@H]1c4c(cc(OC)c(O)c4Oc4ccc(cc4)C[C@@H]3N(C)CC2)CC[N+]1(C)C [TUBOCURARINE] | 24.1 µM | > 30 µM | > 30 µM | > 30 µM |  | > 30 µM | > 30 µM | > 30 µM | > 30 µM | > 30 µM | > 30 µM
